Experimental data reported in ChEMBL document CHEMBL3507680, “University of Dundee, Gates Library screen for HepG2 cell viability”.

Test: Human HepG2 cell viability assay in 384 well format
Type: toxicity, cell-based
Design: dose 125 nL, time 70.5 hour; concentration not given beside the values
Conditions: HepG2 cells, read-out: Inhibition

`OCc1n[nH]c(-c2ccc(F)cc2)n1` gave a cytotoxicity at 70.5 h of -13.2%.

`Cc1ccc2c(c1)c(C)cc(=O)n2CCC#N` showed a cytotoxicity at 70.5 h of 0.982%.

For `CC(C)c1cc(C(=O)NCCCN(C)C)nc(N2CCCC2)n1`, the cytotoxicity at 70.5 h was -8.44%.

`CCn1nc(C)c2nc(C(C)C)nc(NCCOC)c21` gave a cytotoxicity at 70.5 h of -5.06%.

In the case of `COc1cc2cc(C(=O)N[C@@H](C)C(=O)O)n(C)c2c(OC)c1OC`, the cytotoxicity at 70.5 h is reported as -4.88%.

`O=C(Cn1cc(I)cn1)N1CCCC1` showed a cytotoxicity at 70.5 h of -3.36%.

In the case of `CC(C)NC(=O)c1n[nH]c(-n2cnnc2)n1`, the cytotoxicity at 70.5 h is reported as -0.175%.

Work on `Cc1nc(N2CCN(C(=O)c3ccccc3)CC2)c2c(n1)c(C)nn2C` yielded a cytotoxicity at 70.5 h of -2.09%.

With `CCn1cc(N2Cc3nc(N4CCN(C)CC4)ncc3C2=O)cn1` the cytotoxicity at 70.5 h was -7.74%.

For `CCn1nc(C)c2nnn(CC(=O)Nc3cccc(Cl)c3)c(=O)c21`, the cytotoxicity at 70.5 h was -5.39%.

In the case of `Cc1nn(C)c2c(=O)n(CC(=O)Nc3cc(Cl)cc(Cl)c3)nnc12`, the cytotoxicity at 70.5 h is reported as -0.624%.

Work on `CCOCc1cccc(S(=O)(=O)N2CCSCC2)c1` yielded a cytotoxicity at 70.5 h of -3.6%.

Compound `Cc1ncc(CNC(=O)c2nn(C)c3c2CS(=O)(=O)CC3)s1` has a cytotoxicity at 70.5 h of -5.86%.

`CCc1noc(C2CCCCN2C(=O)c2ccoc2C)n1` (centres undefined) showed a cytotoxicity at 70.5 h of 9.18%.

In the case of `COCCCNC(=O)CCn1nc(C)c2ccccc21`, the cytotoxicity at 70.5 h is reported as -2.16%.

Compound `Cc1nc(N2CCCC2)ncc1-c1cc(O)nc(N2CCCC2)n1` has a cytotoxicity at 70.5 h of -11.7%.

Compound `CCN(CC)C(=O)CCn1ncc2c(Cl)cccc21` has a cytotoxicity at 70.5 h of -10.4%.

In the case of `COCc1nc(N(C)C)ncc1C(=O)NC(C)C`, the cytotoxicity at 70.5 h is reported as 12.7%.

Work on `CCN(CC)C(=O)c1ccn(COc2ccccc2)n1` yielded a cytotoxicity at 70.5 h of -7.93%.

With `Cc1ccc2cnn(CCC(=O)Nc3c(C)nn(C)c3C)c2c1` the cytotoxicity at 70.5 h was -6.3%.

For `Cc1nn(C)c(C)c1NC(=O)CCn1ncc2c(C)cccc21`, the cytotoxicity at 70.5 h was -5.31%.

Work on `CC(C(=O)N1CCc2ccccc2C1)n1cc(Br)cn1` (centres undefined) yielded a cytotoxicity at 70.5 h of -13.3%.

In the case of `Cc1cccc2c1cnn2CCCNC(=O)CCCC(=O)O`, the cytotoxicity at 70.5 h is reported as -4.18%.

`CCS(=O)(=O)Nc1ccn(Cc2cccc(Cl)c2)n1` gave a cytotoxicity at 70.5 h of -4.96%.

For `O=C(NC1=NCCCN1c1ccc(Cl)cc1)c1cccc(Cl)c1`, the cytotoxicity at 70.5 h was 9.24%.

For `CCOc1ccc(N2CCCN=C2NC(=O)c2ccccc2C)cc1`, the cytotoxicity at 70.5 h was -12.8%.

With `Cc1cc(C)nc(NC(=O)C(C)Oc2ccc3c(c2)OCO3)n1` (centres undefined) the cytotoxicity at 70.5 h was -11.4%.

With `CSCc1cccc(S(=O)(=O)NCCCO)c1` the cytotoxicity at 70.5 h was -6.9%.

With `CSCc1cccc(S(=O)(=O)NCCCN2CCOCC2)c1` the cytotoxicity at 70.5 h was -6.88%.

In the case of `CCN1CCN(S(=O)(=O)c2cc(C)c(Cl)cc2Cl)CC1`, the cytotoxicity at 70.5 h is reported as 10.1%.

Compound `CCC(C)c1noc(C2CCN(C(=O)c3cccs3)CC2)n1` (centres undefined) has a cytotoxicity at 70.5 h of -10.7%.

In the case of `CCn1cc(Br)c(C(=O)NCc2cccnc2)n1`, the cytotoxicity at 70.5 h is reported as -7.68%.

Compound `CC1CCN(c2ncc3c(n2)CN(c2ccc4c(c2)OCO4)C3=O)CC1` has a cytotoxicity at 70.5 h of -6.45%.

`Cc1nc(C2CCCN2C(=O)CCc2ccc(F)cc2)ncc1C(N)=O` (centres undefined) gave a cytotoxicity at 70.5 h of -10.3%.

`Cc1cccc(C)c1NC(=O)c1n[nH]c(-n2cnnc2)n1` showed a cytotoxicity at 70.5 h of -13.4%.

In the case of `Cc1cc(N(C)C)nc(C2(C)CCCN2C(=O)c2cncnc2C)n1` (centres undefined), the cytotoxicity at 70.5 h is reported as -10.8%.

Work on `CNCC(=O)N1CCCCC1c1nccc(C)n1` (centres undefined) yielded a cytotoxicity at 70.5 h of 16.2%.

Work on `CC(=O)N1CCCC(c2ccc(C(=O)NC3CCCC3)cn2)C1` (centres undefined) yielded a cytotoxicity at 70.5 h of -5.66%.

`CC1CCN(C(=O)c2cnc(CC3CCCN(C)C3)cn2)CC1` (centres undefined) showed a cytotoxicity at 70.5 h of -9.3%.

For `CNc1cc(C2CCCN2Cc2ccc(OCC(=O)O)cc2)ccn1` (centres undefined), the cytotoxicity at 70.5 h was -5.44%.

For `c1cncc(CN2CCCC(c3nnc(-c4cnccn4)o3)C2)c1` (centres undefined), the cytotoxicity at 70.5 h was -14%.

`c1cc(CN2CCCC(c3nnc(-c4cnccn4)o3)C2)ccn1` (centres undefined) gave a cytotoxicity at 70.5 h of -8.48%.

In the case of `c1cc(-c2nnc(C3CCCN(CC4CCCCC4)C3)o2)ccn1` (centres undefined), the cytotoxicity at 70.5 h is reported as -5.12%.

Work on `CC(=O)N1CCC(c2ccnc(Nc3ccc(C)cn3)n2)C1` (centres undefined) yielded a cytotoxicity at 70.5 h of 16%.

`O=C(Cc1ccccc1)N1CCOC(c2nc(-c3ncccn3)no2)C1` (centres undefined) showed a cytotoxicity at 70.5 h of -4.21%.

`CCCC(=O)N1CCC(c2nc(O)c3c(n2)CCN(C2CCCC2)C3)C1` (centres undefined) showed a cytotoxicity at 70.5 h of -0.72%.

Compound `CC(=O)NCC(=O)N1CCC(c2cncc(Oc3cccnc3)n2)CC1` has a cytotoxicity at 70.5 h of -9.15%.

`Cc1noc(C)c1C(=O)N1CCCC(c2c(C)c(=O)nc3n2CCC3)C1` (centres undefined) showed a cytotoxicity at 70.5 h of -9.85%.

In the case of `Cc1nc(CCC(=O)NC2CCC2)cc(C2CCCNC2)n1` (centres undefined), the cytotoxicity at 70.5 h is reported as -9.96%.

Work on `CN(C)C(=O)C1CN(Cc2cccs2)CCN(S(C)(=O)=O)C1` (centres undefined) yielded a cytotoxicity at 70.5 h of -5.12%.

In the case of `CN(Cc1ccc(F)cc1)CC1(O)CCN(C(=O)c2ccsc2)C1` (centres undefined), the cytotoxicity at 70.5 h is reported as 9.08%.

In the case of `Cc1nn(C)cc1C(=O)N1CCCC(n2nnc3cc(F)ccc32)C1` (centres undefined), the cytotoxicity at 70.5 h is reported as 11.8%.

With `CN1CCc2c(C#N)c(NCc3cccnc3)n3cnnc3c2C1` the cytotoxicity at 70.5 h was -27%.

Compound `CCOc1ccc(Br)cc1-c1cc(N)[nH]n1` has a cytotoxicity at 70.5 h of -6.54%.

`Cc1nc(C2(O)CCCNCC2)sc1CCOc1ccccc1Cl` (centres undefined) showed a cytotoxicity at 70.5 h of 1.01%.

Compound `Cc1nc(C2(O)CCCNCC2)sc1CCOc1ccccc1` (centres undefined) has a cytotoxicity at 70.5 h of -9.24%.

`Cc1nc(C2(O)CCCNCC2)sc1CCOc1ccc(F)cc1` (centres undefined) showed a cytotoxicity at 70.5 h of 16.3%.

In the case of `Cc1ccc(Cc2cnc(C3CCNCC3)cn2)cc1`, the cytotoxicity at 70.5 h is reported as -12.9%.

Work on `O=C(CN(C1=NCCCC1)c1ccccc1)c1ccc2c(c1)OCCO2` yielded a cytotoxicity at 70.5 h of -16.3%.
